Reference: article PMC10914734 (Signal Transduction and Targeted Therapy, 2024)

Each compound was assayed against Human CTSL (Homo sapiens, UniProt P07711) (assay: FRET-based cleavage assay, enzymatic inhibition of human CTSL). Conditions: not given.
Sequence of Human CTSL (P07711 114-333): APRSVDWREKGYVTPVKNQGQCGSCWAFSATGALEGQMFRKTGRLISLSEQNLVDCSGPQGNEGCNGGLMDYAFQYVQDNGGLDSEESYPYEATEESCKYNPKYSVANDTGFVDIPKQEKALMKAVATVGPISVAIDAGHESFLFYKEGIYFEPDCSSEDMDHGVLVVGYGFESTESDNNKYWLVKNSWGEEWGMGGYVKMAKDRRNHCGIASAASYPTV

| Structure (SMILES) | IC50 |
| --- | --- |
| O=C(O)/C(F)=C/[C@H](C[C@@H]1CCCNC1=O)NC(=O)[C@H](CC1CCCCC1)NC(=O)c1cc2ccccc2o1 [14i, (S,Z)-4-((S)-2-(benzofuran-2-carboxamido)-3-cyclohexylpropanamido)-2-fluoro-5-((S)-2-oxopiperidin-3-yl)pent-2-enoic acid] | 2.16 µM |
| O=C(N[C@@H](Cc1ccc(F)cc1)C(=O)N[C@H](/C=C/S(=O)(=O)c1ccccc1)C[C@@H]1CCCNC1=O)c1cc2ccccc2o1 [14c, N-((S)-3-(4-fluorophenyl)-1-oxo-1-(((S,E)-1-((S)-2-oxopiperidin-3-yl)-4-(phenylsulfonyl)but-3-en-2-yl)amino)propan-2-yl)benzofuran-2-carboxamide] | 0.0503 ± 0.0121 µM |
| O=C(N/N=C/[C@H](C[C@@H]1CCCNC1=O)NC(=O)[C@H](Cc1ccc(F)cc1)NC(=O)c1cc2ccccc2o1)c1ccccc1 [14e, N-((S)-1-(((S,E)-1-(2-benzoylhydrazineylidene)-3-((S)-2-oxopiperidin-3-yl)propan-2-yl)amino)-3-(4-fluorophenyl)-1-oxopropan-2-yl)benzofuran-2-carboxamide] | 3.94 µM |
| O=C(N[C@@H](Cc1ccc(F)cc1)C(=O)N[C@H](/C=N/NC(=O)C1CC1)C[C@@H]1CCCNC1=O)c1cc2ccccc2o1 [14g, N-((S)-1-(((S,E)-1-(2-(cyclopropanecarbonyl)hydrazineylidene)-3-((S)-2-oxopiperidin-3-yl)propan-2-yl)amino)-3-(4-fluorophenyl)-1-oxopropan-2-yl)benzofuran-2-carboxamide] | 1.32 µM |
| O=C(N[C@@H](Cc1ccc(F)cc1)C(=O)N[C@H](/C=N/NC(=O)C1CCCCC1)C[C@@H]1CCCNC1=O)c1cc2ccccc2o1 [14f, N-((S)-1-(((S,E)-1-(2-(cyclohexanecarbonyl)hydrazineylidene)-3-((S)-2-oxopiperidin-3-yl)propan-2-yl)amino)-3-(4-fluorophenyl)-1-oxopropan-2-yl)benzofuran-2-carboxamide] | 8.53 µM |
| CC1(C)[C@@H]2[C@@H](C(=O)N[C@@H](C[C@@H]3CCCNC3=O)C(=O)C(=O)NCc3ccccc3)N(C(=O)c3cc4ccccc4o3)C[C@@H]21 [14m, (1R,2S,5S)-3-(benzofuran-2-carbonyl)-N-((S)-4-(benzylamino)-3,4-dioxo-1-((S)-2-oxopiperidin-3-yl)butan-2-yl)-6,6-dimethyl-3-azabicyclo[3.1.0]hexane-2-carboxamide] | 1.87 µM |
| O=C(N[C@@H](Cc1ccc(F)cc1)C(=O)N[C@H](/C=N/Nc1ncccn1)C[C@@H]1CCCNC1=O)c1cc2ccccc2o1 [14h, N-((S)-3-(4-fluorophenyl)-1-oxo-1-(((S,E)-1-((S)-2-oxopiperidin-3-yl)-3-(2-(pyrimidin-2-yl)hydrazineylidene)propan-2-yl)amino)propan-2-yl)benzofuran-2-carboxamide] | 1.6 µM |

Same assay, conditions: read-out: IC50, enzymatic inhibitory activity against human CTSL; mean ± SD

| Structure (SMILES) | IC50 |
| --- | --- |
| O=C(N[C@@H](CC1C=CC=CC1)C(=O)N[C@H](/C=C/S(=O)(=O)c1ccccc1)C[C@@H]1CCCNC1=O)c1cc2ccccc2o1 (stereo partly drawn) [14d, N-((2S)-3-(cyclohexa-2,4-dien-1-yl)-1-oxo-1-(((S,E)-1-((S)-2-oxopiperidin-3-yl)-4-(phenylsulfonyl)but-3-en-2-yl)amino)propan-2-yl)benzofuran-2-carboxamide] | 0.0772 ± 0.012 µM |

Same assay, conditions: read-out: Inhibition rate against human CTSL

| Structure (SMILES) | inhibition at 1 µM |
| --- | --- |
| O=C(NC1CC1)/C(F)=C/[C@H](C[C@@H]1CCCNC1=O)NC(=O)[C@H](CC1CCCCC1)NC(=O)c1cc2ccccc2o1 [14k, N-((S)-3-cyclohexyl-1-(((S,Z)-5-(cyclopropylamino)-4-fluoro-5-oxo-1-((S)-2-oxopiperidin-3-yl)pent-3-en-2-yl)amino)-1-oxopropan-2-yl)benzofuran-2-carboxamide] | 37% |
| O=C(NCc1ccccc1)C(=O)[C@H](C[C@@H]1CCCNC1=O)NC(=O)[C@@H]1[C@H]2CCC[C@H]2CN1C(=O)c1cc2ccccc2o1 [14l, (1S,3aR,6aS)-2-(benzofuran-2-carbonyl)-N-((S)-4-(benzylamino)-3,4-dioxo-1-((S)-2-oxopiperidin-3-yl)butan-2-yl)octahydrocyclopenta[c]pyrrole-1-carboxamide] | 12% |
| CCOC(=O)/C(F)=C/[C@H](C[C@@H]1CCCNC1=O)NC(=O)[C@H](CC1CCCCC1)NC(=O)c1cc2ccccc2o1 [14j, Ethyl (S,Z)-4-((S)-2-(benzofuran-2-carboxamido)-3-cyclohexylpropanamido)-2-fluoro-5-((S)-2-oxopiperidin-3-yl)pent-2-enoate] | 30% |
